# Entries after “also recorded” stand apart in the source; their conditions may differ.
# What was measured:
# [1] = tested on: polyoma virus transformed BHK21/c13 cells, line S100T1; experiment: Collocation inhibition test: clonal growth in sparsely and densely seeded areas of a cell density gradient of S100T1 cells in soft agar (Exp 13, 17, 19-26); conditions: for Significance: Exp 17 day 14;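 as to Clonal growth, H high density area of cell gradient, High: grades rise with clonal growth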;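 as to Clonal growth, H high density area of cell gradient, Low: grades rise with clonal growth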;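 as to Clonal growth, H high density area of cell gradient, Medium: grades rise with clonal growth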;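 as to Clonal growth, L low density area of cell gradient, High: grades rise with clonal growth and minus or plus-minus means none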;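 as to Clonal growth, L low density area of cell gradient, Low: grades rise with clonal growth and minus or plus-minus means none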;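 as to Clonal growth, L low density area of cell gradient, Medium: grades rise with clonal growth and minus or plus-minus means none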;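 as to all read-outs here: soft agar cultures in 24-well plates with a cell density gradient in the top layer, compounds applied from DMSO stocks, clonal growth scored in sparse versus dense areas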
# [2] = tested on: polyoma virus transformed BHK21/c13 cells, clone S100T1; experiment: Clonal test: clonal growth of S100T1 cells in soft agar (Exp 2, 4, 6, 15, 16); assay type: cell-based, hamster
# Ehrlich ascites tumour = conditions: Exp 18
# Experimental: Tumour cells harvested from ascitic mouse were mainly solitary.
# The experiment describes transplantation of the malignant mouse Ehrlich ascites tumour to two adult male mice (NMRI/Bom). Each of them received 100000 cells intraperitonally. One mouse was treated two times a week with 4-OH-OPB intraperitonally.
# Cells were injected 90 minutes after the addition of 4-OH-OPB to the suspension. The control received the same cell suspension without 4-OH-OPB.
# At the same time, dilutions of 4-OH-OPB were injected intraperitonally to the transplanted mice in order to find the smallest active dose.
# The cells from ascites in the untreated control mouse was frozen on serum with 10% DMSO. The cells were thawed in water of 37° C., diluted in serum, and pelleted by low speed centrifugation after the addition of 2 ml FBS, to remove DMSO.
# Each animal received such cells suspended in portions of 1 ml in RPMI (pH˜6.9).
# The frozen and thawed Ehrlich ascites cells are diluted in a volume of 1 ml RPMI (pH˜6.9) for each animal. No calf serum was added to the medium to avoid immunisation of the mice.
# Cell number: 90000 tumour cells in 0.7 ml RPMI were injected intraperitonally to each animal.
# The total cell number in the ampoule was 7.5 million cells. The cells were thawed, and 2 ml FBS was added before low speed centrifugation. […] Than separate vessels were prepared for each animal. The cell tube for animal number 3 received Colchicine as indicated in the table on day 0 one hour before the cells were injected.
# After mixing the same volume was transferred from this tube to the last tube.
# The content of the last two tubes was injected intraperitonally to each of the mice number 1 and 2 respectively.
# [3] = Exp 13, 4-OH-OPB 1-3 μM, Colchicine 0.01-0.1 μM
# [4] = Exp 13, High inhibitor conc. (Colchicine 100 nM), H: high cell density area
# [5] = Exp 13, High inhibitor conc. (Colchicine 100 nM), L: low cell density area
# [6] = Exp 13, Low inhibitor conc. (4-OH—OPB 1 μM, Colchicine 10 nM), H: high cell density area
# [7] = Exp 13, Low inhibitor conc. (4-OH—OPB 1 μM, Colchicine 10 nM), L: low cell density area
# [8] = Exp 13, Medium inhibitor conc. (4-OH—OPB 3 μM, Colchicine 33 nM), H: high cell density area
# [9] = Exp 13, Medium inhibitor conc. (4-OH—OPB 3 μM, Colchicine 33 nM), L: low cell density area
# [10] = preliminary results, Exp 13-18, 21-26, high concentration
# [11] = preliminary results, Exp 13-18, 21-26, low concentration
# [12] = preliminary results, Exp 13-18, 21-26, medium concentration
smiles,measurement,setting,value
"COc1cc2c(c(OC)c1OC)-c1ccc(OC)c(=O)cc1[C@@H](NC(C)=O)CC2 [Colchicine, reference compound]",Growth in locations with high cell density,[1]; [3],did not inhibit clonal growth
same,Growth in locations with low cell density (sparsely seeded cells),[1]; [3],full inhibition on clonal growth of sparsely seeded cells; also recorded: inhibited growth in locations with low cell density even when using low doses
same,"Growth, summary of results after 3 days incubation",[1]; [4],+++
same,"Growth, summary of results after 4 days incubation",[1]; [4],+++
same,"Growth, summary of results after 3 days incubation",[1]; [5],−
same,"Growth, summary of results after 4 days incubation",[1]; [5],−
same,"Growth, summary of results after 3 days incubation",[1]; [6],+++
same,"Growth, summary of results after 4 days incubation",[1]; [6],+++
same,"Growth, summary of results after 3 days incubation",[1]; [7],−
same,"Growth, summary of results after 4 days incubation",[1]; [7],+−
same,"Growth, summary of results after 3 days incubation",[1]; [8],+++
same,"Growth, summary of results after 4 days incubation",[1]; [8],+++
same,"Growth, summary of results after 3 days incubation",[1]; [9],−
same,"Growth, summary of results after 4 days incubation",[1]; [9],−
same,Effect on growth in high- and low-density areas,"[1]; Exp 17, 144000 S100T1 cells/well",did not inhibit the high-density areas significantly; also recorded: no complete clonal inhibition could be observed
same,"Clonal growth, results read on the day 14","[1]; Exp 17, a: close to densely seeded cell areas, High: Colchicine 1, Podophyllotoxin 3, Etoposide 200, 4-OH—OPB 6.7 μM in wells, DMSO 29.2 μl",(+)
same,"Clonal growth, results read on the day 14","[1]; Exp 17, a: close to densely seeded cell areas, Low: Colchicine 0.1, Podophyllotoxin 0.3, Etoposide 20, 4-OH—OPB 0.67 μM in wells, DMSO 1.16 μl",++
same,"Clonal growth, results read on the day 14","[1]; Exp 17, a: close to densely seeded cell areas, Medium: Colchicine 0.3, Podophyllotoxin 0.9, Etoposide 60, 4-OH—OPB 2 μM in wells, DMSO 6.8 μl",++
same,"Clonal growth, results read on the day 14","[1]; Exp 17, b: sparsely seeded areas in the same agar culture, High: Colchicine 1, Podophyllotoxin 3, Etoposide 200, 4-OH—OPB 6.7 μM in wells, DMSO 29.2 μl",(+)
same,"Clonal growth, results read on the day 14","[1]; Exp 17, b: sparsely seeded areas in the same agar culture, Low: Colchicine 0.1, Podophyllotoxin 0.3, Etoposide 20, 4-OH—OPB 0.67 μM in wells, DMSO 1.16 μl",++
same,"Clonal growth, results read on the day 14","[1]; Exp 17, b: sparsely seeded areas in the same agar culture, Medium: Colchicine 0.3, Podophyllotoxin 0.9, Etoposide 60, 4-OH—OPB 2 μM in wells, DMSO 6.8 μl",++
same,Clones in sparsely seeded locations of the agar,"[1]; Exp 17, compared with 4-OH-OPB",allow the growth of a few small clones in sparsely seeded locations of the agar; also recorded: to allow the growth of a few small clones in sparsely
same,Significance,"[1]; a: close to densely seeded cell areas, High: Colchicine 1, Podophyllotoxin 3, Etoposide 200, 4-OH—OPB 6.7 μM in wells, DMSO 29.2 μl",Possible
same,Significance,"[1]; a: close to densely seeded cell areas, Low: Colchicine 0.1, Podophyllotoxin 0.3, Etoposide 20, 4-OH—OPB 0.67 μM in wells, DMSO 1.16 μl",No
same,Significance,"[1]; a: close to densely seeded cell areas, Medium: Colchicine 0.3, Podophyllotoxin 0.9, Etoposide 60, 4-OH—OPB 2 μM in wells, DMSO 6.8 μl",No
same,Significance,"[1]; b: sparsely seeded areas, High: Colchicine 1, Podophyllotoxin 3, Etoposide 200, 4-OH—OPB 6.7 μM in wells, DMSO 29.2 μl",Possible
same,Significance,"[1]; b: sparsely seeded areas, Low: Colchicine 0.1, Podophyllotoxin 0.3, Etoposide 20, 4-OH—OPB 0.67 μM in wells, DMSO 1.16 μl",No
same,Significance,"[1]; b: sparsely seeded areas, Medium: Colchicine 0.3, Podophyllotoxin 0.9, Etoposide 60, 4-OH—OPB 2 μM in wells, DMSO 6.8 μl",No
same,"Clonal growth, H high density area of cell gradient, High",[1]; [10],+++
same,"Clonal growth, L low density area of cell gradient, High",[1]; [10],−
same,"Clonal growth, H high density area of cell gradient, Low",[1]; [11],+++
same,"Clonal growth, L low density area of cell gradient, Low",[1]; [11],−
same,"Clonal growth, H high density area of cell gradient, Medium",[1]; [12],+++
same,"Clonal growth, L low density area of cell gradient, Medium",[1]; [12],−
same,Effect on cell cloning in soft agar,"[1]; preliminary results, in words",Growth in high density areas; also recorded: No growth in low density areas
same,Effect on clonal growth at 0.01-0.1 μM,"[2]; Exp 15, 32000 S100T1 cells/well",did not inhibit clonal growth
same,Colony inhibiting activity for dosage within a range that might be therapeutic,"[2]; Exp 16, about 40000 S100T1 cells/well",the same activity possibly existed
same,Significance,"[2]; Exp 16 day 14, Colchicine No 1 (lot 60K1932, solved in DMSO 8 days beforehand, stored frozen), 0.1 μM",doubtful
same,Growth,"[2]; Exp 16 day 14, Colchicine No 1 (lot 60K1932, solved in DMSO 8 days beforehand, stored frozen), 0.1 μM in wells",(+
same,Significance,"[2]; Exp 16 day 14, Colchicine No 1 (lot 60K1932, solved in DMSO 8 days beforehand, stored frozen), 1 μM",doubtful
same,Growth,"[2]; Exp 16 day 14, Colchicine No 1 (lot 60K1932, solved in DMSO 8 days beforehand, stored frozen), 1 μM in wells",(+
same,Growth,"[2]; Exp 16 day 14, Colchicine No 2 (lot 60K1932, solved in DMSO the same day), 0.1 μM in wells",(+
same,Significance,"[2]; Exp 16 day 14, Colchicine No 2 (lot 60K1932, solved in DMSO the same day), 0.1 μM, ” = as line above",” and doubtful
same,Significance,"[2]; Exp 16 day 14, Colchicine No 2 (lot 60K1932, solved in DMSO the same day), 1 μM",possible
same,Growth,"[2]; Exp 16 day 14, Colchicine No 2 (lot 60K1932, solved in DMSO the same day), 1 μM in wells",(+)
same,Significance,"[2]; Exp 16 day 14, Colchicine No 3 (lot 28H1229, solved in DMSO the same day), 0.1 μM",possible
same,Growth,"[2]; Exp 16 day 14, Colchicine No 3 (lot 28H1229, solved in DMSO the same day), 0.1 μM in wells",(+)
same,Growth,"[2]; Exp 16 day 14, Colchicine No 3 (lot 28H1229, solved in DMSO the same day), 0.22 μM in wells",(+)
same,Significance,"[2]; Exp 16 day 14, Colchicine No 3 (lot 28H1229, solved in DMSO the same day), 0.22 μM, ” = as line above",” and possible
same,Growth,"[2]; Exp 16 day 14, Colchicine No 4 (lot 28H1229, solved in DMSO the same day), 0.46 μM in wells",(+)
same,Significance,"[2]; Exp 16 day 14, Colchicine No 4 (lot 28H1229, solved in DMSO the same day), 0.46 μM, ” = as line above",” and possible
same,Significance,"[2]; Exp 16 day 14, Colchicine No 4 (lot 28H1229, solved in DMSO the same day), 1 μM",probable
same,Growth,"[2]; Exp 16 day 14, Colchicine No 4 (lot 28H1229, solved in DMSO the same day), 1 μM in wells",(+))
same,Significance,"[2]; Exp 16 day 21, Colchicine No 1 (lot 60K1932, solved in DMSO 8 days beforehand, stored frozen), 0.1 μM",no
same,Growth,"[2]; Exp 16 day 21, Colchicine No 1 (lot 60K1932, solved in DMSO 8 days beforehand, stored frozen), 0.1 μM in wells",+
same,Significance,"[2]; Exp 16 day 21, Colchicine No 1 (lot 60K1932, solved in DMSO 8 days beforehand, stored frozen), 1 μM",doubtful
same,Growth,"[2]; Exp 16 day 21, Colchicine No 1 (lot 60K1932, solved in DMSO 8 days beforehand, stored frozen), 1 μM in wells",(+
same,Significance,"[2]; Exp 16 day 21, Colchicine No 2 (lot 60K1932, solved in DMSO the same day), 0.1 μM",doubtful
same,Growth,"[2]; Exp 16 day 21, Colchicine No 2 (lot 60K1932, solved in DMSO the same day), 0.1 μM in wells",(+
same,Significance,"[2]; Exp 16 day 21, Colchicine No 2 (lot 60K1932, solved in DMSO the same day), 1 μM",possible
same,Growth,"[2]; Exp 16 day 21, Colchicine No 2 (lot 60K1932, solved in DMSO the same day), 1 μM in wells",(+)
same,Growth,"[2]; Exp 16 day 21, Colchicine No 3 (lot 28H1229, solved in DMSO the same day), 0.1 μM in wells",(+
same,Significance,"[2]; Exp 16 day 21, Colchicine No 3 (lot 28H1229, solved in DMSO the same day), 0.1 μM, ” = as line above",” and doubtful
same,Significance,"[2]; Exp 16 day 21, Colchicine No 3 (lot 28H1229, solved in DMSO the same day), 0.22 μM",doubtful
same,Growth,"[2]; Exp 16 day 21, Colchicine No 3 (lot 28H1229, solved in DMSO the same day), 0.22 μM in wells",(+
same,Significance,"[2]; Exp 16 day 21, Colchicine No 4 (lot 28H1229, solved in DMSO the same day), 0.46 μM",possible
same,Growth,"[2]; Exp 16 day 21, Colchicine No 4 (lot 28H1229, solved in DMSO the same day), 0.46 μM in wells",(+)
same,Growth,"[2]; Exp 16 day 21, Colchicine No 4 (lot 28H1229, solved in DMSO the same day), 1 μM in wells",(+
same,Significance,"[2]; Exp 16 day 21, Colchicine No 4 (lot 28H1229, solved in DMSO the same day), 1 μM, ” = as line above",” and doubtful
same,"tumour in abdominal wall, findings on section","Ehrlich ascites tumour; at killing, control 2 × 3 mm tumour",Lens sized
same,"ascites with Ehrlich cells, findings on section","Ehrlich ascites tumour; at killing, control 4 ml",1.5 mL
same,day 14 status,"Ehrlich ascites tumour; day 14 after ip transplantation, mouse 1 killed, mice 2 and 3 marked '?'",Ascites
same,day 16 status,"Ehrlich ascites tumour; day 16, killed because of signs of ascites",Ascites
same,Rescue of mice from transplanted Ehrlich tumour,Ehrlich ascites tumour; high dose mixed with the transplanted cells before injection,did not provide complete protection against the development of transplantable Ehrlich tumour; also recorded: not rescue the animal either. The conclusion is
same,weight gain in %,"Ehrlich ascites tumour; one mouse each, ip: mouse 1 4-OH—OPB from day 1, mouse 2 Etoposide + 4-OH—OPB from day 1, mouse 3 Colchicine from day 0, control mouse 42.4",23.8%
